Experimental data as given in patent US20070207121A1, “Methods of Using and Compositions Comprising Selective Cytokine Inhibitory Drugs for Treatment and Management of Macular Degeneration” (priority 2003, published 2007).

Legend:
TNF-α production = experiment: Inhibition of TNF-α production following LPS-stimulation of human PBMC and human whole blood (in vitro pharmacology studies); type: cell-based; settings: more potent than thalidomide
Source text: One of the biological effects typically exerted by selective cytokine inhibitory drugs is the reduction of synthesis of TNF-α Specific selective cytokine inhibitory drugs enhance the degradation of TNF-αmRNA. TNF-α may play a pathological role in macular degeneration.
In a specific embodiment, the pharmacological properties of 3-(3,4-dimethoxy-phenyl)-3-(1-oxo-1,3-dihydro-isoindol-2-yl)-propionamide are characterized in in vitro studies. Studies examine the effects of the compound on the production of various cytokines. Inhibition of TNF-α production following LPS-stimulation of human PBMC and human whole blood by the compound is investigated in vitro. […] The pharmacological effects of 3-(3,4-dimethoxy-phenyl)-3-(1-oxo-1,3-dihydro-isoindol-2-yl)-propionamide may derive from its action as an inhibitor of the generation of inflammatory cytokines.

laser-induced CNVM = settings: intravitreal injection, monkeys; cited from earlier work
patients with MD = settings: intravitreal injection, over a one-year period; cited from earlier work
MD = settings: cited from earlier work
[1] = tested on: patients with macular degeneration; experiment: Clinical study in patients with macular degeneration, adjuvant to photodynamic therapy with verteporfin; type: in vivo, human; settings: about 20 mg/day as adjuvant for 20 weeks with verteporfin photodynamic therapy
Protocol: Selective cytokine inhibitory drugs of the invention are administered in an amount of about 20 to about 1,200 mg per day to patients with macular degeneration. In a specific embodiment, clinical studies are performed with forty patients with macular degeneration, who are divided into two groups. The first group receives conventional treatment for closing the leaking choroidal vessels (characteristic of this disease) by photodynamic therapy with verteporfin. Opthalmol 1999 (117): 1329-1345. The second group receives the same conventional therapy with verteporfin and (+)-2-[1-(3-ethoxy-4 methoxyphenyl)-2-methylsulfonylethyl]-4 acetylaminoisoindoline 1,3-dione in an amount of about 20 mg/day as an adjuvant for 20 weeks.
However, the first group without (+)-2-[1-(3-ethoxy-4 methoxyphenyl)-2-methylsulfonylethyl]-4-acetylaminoisoindoline 1,3-dione experiences progressive reperfusion of the ablated vessels several weeks after treatment. Progressive visual loss follows which requires the photodynamic therapy to be repeated.

COc1ccc(C(CC(N)=O)N2Cc3ccccc3C2=O)cc1OC (stereo not shown) [3-(3,4-dimethoxy-phenyl)-3-(1-oxo-1,3-dihydro-isoindol-2-yl)-propionamide]
pharmacological activity profile, potency relative to thalidomide (TNF-α production): five to fifty

C[C@]12C=CC(=O)C=C1CC[C@H]1[C@@H]3C[C@@H](O)[C@](O)(C(=O)CO)[C@@]3(C)C[C@H](O)[C@@]12F [triamcinolone]
growth of laser-induced CNVM (laser-induced CNVM): inhibits
prevention of severe visual loss (patients with MD): fails to prevent severe visual loss

interferon-α
efficacy at treating MD (MD; clinical trial): ineffective
adverse effects (MD; in vivo): high rate of adverse effects

CCOc1cc(C(CS(C)(=O)=O)N2C(=O)c3cccc(NC(C)=O)c3C2=O)ccc1OC (single isomer, unassigned; (+)) [(+)-2-[1-(3-ethoxy-4 methoxyphenyl)-2-methylsulfonylethyl]-4 acetylaminoisoindoline 1,3-dione]
effects of the photodynamic therapy [1]: indefinitely prolong
neovascular cascade [1]: sufficiently hindered
